Reference: the RepoRT retention time repository

Assays:
Settings in all cases: stereoisomer not certain
[1] = HILIC, Waters Atlantis Premier BEH Z-HILIC, 100 × 2.1 mm, 1.7 µm, 40 °C, 0.15 mL/min, estimated dead time 1.5 min; A: water + 20 mM ammonium carbonate + 5 µM medronic acid; B: 10% water + 90% acetonitrile + 2 mM ammonium carbonate + 0.5 µM medronic acid; gradient (min/%B) 0/97 18/55 18.1/20 21.5/20 22/97 23.5/97 25.5/97
[2] = HILIC, Waters Atlantis Premier BEH Z-HILIC, 100 × 2.1 mm, 1.7 µm, 40 °C, 0.15 mL/min, estimated dead time 1.5 min; A: water + 20 mM ammonium carbonate + 5 µM medronic acid; B: 10% water + 90% acetonitrile + 2 mM ammonium carbonate + 0.5 µM medronic acid; gradient (min/%B) 0/95 18/50 18.1/20 21.5/20 22/95 23.5/95 25.5/95
[3] = RP, Waters ACQUITY UPLC BEH C18, 100 × 2.1 mm, 1.7 µm, 35 °C, 0.3 mL/min, estimated dead time 0.73 min; A: water + 0.1% formic acid, pH 3; B: methanol; gradient (min/%B) 0/10 1.6/10 2/20 6/70 7/70 14/90 17.5/90 18/95 21/95
[4] = RP, Waters ACQUITY UPLC HSS T3, 0.4 mL/min; A: water + 0.01% formic acid; B: 50% water + 50% acetonitrile + 0.01% formic acid; gradient (min/%B) 0/0 0.5/0 9/30 10/50 15/100 16/100 17/0 25/0
[5] = RP, Waters ACQUITY UPLC BEH C18, 100 × 2.1 mm, 1.7 µm, 35 °C, 0.3 mL/min, estimated dead time 0.73 min; A: water + 0.1% formic acid, pH 3; B: methanol; gradient (min/%B) 0/0 1.6/0 2/20 6/70 7/70 14/90 17.5/90 18/95 21/95
[6] = RP, Waters ACQUITY UPLC BEH C18, 100 × 2.1 mm, 1.7 µm, 35 °C, 0.25 mL/min, estimated dead time 0.88 min; A: water + 0.1% acetic acid, pH 3; B: acetonitrile; gradient (min/%B) 0/10 1/10 2.5/15 4/22 6/38 9/65 12/80 16/100 19/100

SMILES | LC retention time [1] [min] | LC retention time [2] [min] | LC retention time [4] [min] | other results
O=C(CO)COP(=O)(O)O [Triose phosphate] | 10.7 | 9.62 | – | –
CCCC(=O)OC(CC(=O)[O-])C[N+](C)(C)C (configuration not stated) [Butyrylcarnitine] | – | – | – | LC retention time [3]: 2.75 min
COC1C(c2c[nH]c(=O)[nH]c2=O)OC(CO)C1O (configuration not stated) [2'-O-methylpseudouridine] | – | – | 4.95 | –
O=c1ccn(C2OC(CO)C(O)C2O)c(=O)[nH]1 (configuration not stated) [uridine] | – | – | 2.04 | –
Nc1nc2c(ncn2C2OC(CO)C(O)C2O)c(=O)[nH]1 (configuration not stated) [guanosine] | – | – | 4.08 | –
NC(CCC(=O)NC(CSSCC(NC(=O)CCC(N)C(=O)O)C(=O)NCC(=O)O)C(=O)NCC(=O)O)C(=O)O (configuration not stated) [Oxidized glutathione] | – | – | – | LC retention time [5]: 3 min; LC retention time [3]: 1.04 min
CCC(=O)OC(CC(=O)[O-])C[N+](C)(C)C (configuration not stated) [carnitine-C3] | 7.17 | 6.36 | – | –
NC(Cc1ccccc1)C(=O)O (configuration not stated) [Phenylalanine] | – | – | – | LC retention time [6]: 2 min
COC1C(O)C(CO)OC1n1cnc2c(N)ncnc21 (configuration not stated) [2'-O-methyladenosine] | – | – | 5.78 | –
COC1C(O)C(CO)OC1n1ccc(=O)[nH]c1=O (configuration not stated) [2'-O-methyluridine] | – | – | 4.79 | –
CC(C)CC(NC(=O)C(C)O)C(=O)O (configuration not stated) [N-lactoyl-leucine] | – | – | – | LC retention time [6]: 5 min
CC(O)C(=O)O (configuration not stated) [Lactic acid] | – | – | – | LC retention time [3]: 1.11 min
NC(CCC(=O)NC(CSCO)C(=O)NCC(=O)O)C(=O)O (stereo not drawn) [S-(Hydroxymethyl)glutathione] | – | – | – | LC retention time [5]: 1.7 min
CC(=O)NC(Cc1ccccc1)C(=O)O (configuration not stated) [N-acetylphenylalanine] | – | – | – | LC retention time [6]: 5 min
COC1C(O)C(CO)OC1n1cnc2c(=O)[nH]c(N)nc21 (configuration not stated) [2'-O-methylguanosine] | – | – | 5.34 | –
C=C(OP(=O)(O)O)C(=O)O [PEP] | 13.8 | 12.5 | – | –
NC(CCC(=O)NC(CS)C(=O)NCC(=O)O)C(=O)O (configuration not stated) [Glutathione] | – | – | – | LC retention time [5]: 2 min; LC retention time [3]: 1 min
CC(C)CC(N)C(=O)O (configuration not stated) [Leucine] | – | – | – | LC retention time [3]: 1.62 min
Nc1ncnc2c1ncn2C1OC(CO)C(O)C1O (configuration not stated) [adenosine] | – | – | 4.57 | –
Nc1ccn(C2OC(CO)C(O)C2O)c(=O)n1 (configuration not stated) [cytidine] | – | – | 0.92 | –

Second part, led by results:

LC retention time [1] [min] | LC retention time [2] [min] | LC retention time [4] [min] | SMILES | other results
10 | 9.06 | – | O=C(O)CCC(=O)O [Succinic Acid] | –
10 | 8.97 | – | O=C(O)CCC(O)C(=O)O (configuration not stated) [2-hydroxy glutaric acid] | –
9.47 | 8.54 | – | O=C(O)CCC(=O)C(=O)O [2-Oxoglutaric acid] | –
12.9 | 11.6 | – | O=C(O)C(CO)OP(=O)(O)O (configuration not stated) [Phosphoglyceric acid A] | –
13.9 | 12.6 | – | O=C(O)CC(C(=O)O)C(O)C(=O)O (configuration not stated) [Isocitric acid] | –
14.1 | 12.9 | – | O=C(O)CC(O)(CC(=O)O)C(=O)O [Citric acid] | –
